This note sets out measurements from US12357603B2, “Acyl sulfonamides for treating cancer” (Bayer Aktiengesellschaft, priority 2019, dated 2025).

The structures appear in SMILES notation.

For experiment [1], the target named is Recombinant human His-tagged Kat6a protein (amino acids 194-810) (Homo sapiens (Human), UniProt Q92794). The experiment in a line: Kat6a activity assay (TR-FRET, acetylation of biotinylated Histone-H4-derived peptide). The class given is biochemical. The conditions noted are these: 60 mins at 22° C., read-out: KAT6A-DPF/HAT domain IC50 [mol/l] (arithmetic mean). The procedure, abridged:
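TR-FRET read-out of H4 K8 acetylation, using anti-acetyl-K8 antibody and streptavidin acceptor, after anacardic acid stop; IC50 from four-parameter regression normalized to DMSO. Reaction: recombinant human Kat6a aa 194-810 (insect-cell derived), 220 nM H4 1-24 peptide, 600 nM acetyl-CoA, pH 8, 22 °C, 60 min, compounds 0.01-20 μM.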

For experiment [2], the system named is ESR1 transcription (luciferase signal in MVLN cells). The experiment in a line: Repression of ESR1 transcription, luciferase reporter in MVLN cells. It is filed as cell-based. The conditions noted are these: Homo sapiens, MVLN, inhibition of luciferase signal in MVLN cells; arithmetic mean. The procedure, abridged: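 Luminescence from an ER-driven Vitellogenin A2 element–luciferase reporter was measured after 24 h of treatment of MVLN cells, in duplicate wells. Alamar Blue (2 h, 530/590 nm) served as a cell-density control.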
Background: In a reporter assay the amount or activity of a reporter protein is the signal.

The test system of experiment [3] is ZR-75-1 cells. The experiment in a line: Proliferation assay ZR-75-1 (Alamar Blue, 144 h). The class given is cell-based. The conditions noted are these: Homo sapiens, ZR-75-1, 144 h, arithmetic mean, read-out: ZR75-1 proliferation assay, EC50 [M] (arithmetic mean). The procedure, abridged: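 Alamar Blue fluorescence (590 nm, 2 h reagent step) measured viability after 144 h compound exposure at 37 °C, 5% CO2. Compounds spanned 2.0×10E-5 to 2.0×10E-9 M in 9 dilutions at 0.2% DMSO, in triplicate, added 24 h after plating 3000 cells/well in RPMI 1640 plus 2.5% FBS.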
In general terms: The colour change of resazurin is a common sign of viable cells or microbes.

The test system of experiment [4] is MDA-MB-436 cells. The experiment in a line: Proliferation assay MDA-MB-436, negative control cell line (Alamar Blue, 144 h). The class given is cell-based. The conditions noted are these: Homo sapiens, MDA-MB-436, 144 h, arithmetic mean. An outline of the steps:
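Viability read as Alamar Blue fluorescence (590 nm, 2 h) after 144 h compound exposure at 37 °C, 5% CO2. Cells seeded at 3000 per well in 2.5% FBS DMEM/Ham's F12, dosed a day later over 2.0×10E-9–2.0×10E-5 M in 9 steps with 0.2% DMSO, in triplicate.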

Recombinant human His-tagged Kat6a protein (amino acids 194-810), sequence (Q92794 194-810): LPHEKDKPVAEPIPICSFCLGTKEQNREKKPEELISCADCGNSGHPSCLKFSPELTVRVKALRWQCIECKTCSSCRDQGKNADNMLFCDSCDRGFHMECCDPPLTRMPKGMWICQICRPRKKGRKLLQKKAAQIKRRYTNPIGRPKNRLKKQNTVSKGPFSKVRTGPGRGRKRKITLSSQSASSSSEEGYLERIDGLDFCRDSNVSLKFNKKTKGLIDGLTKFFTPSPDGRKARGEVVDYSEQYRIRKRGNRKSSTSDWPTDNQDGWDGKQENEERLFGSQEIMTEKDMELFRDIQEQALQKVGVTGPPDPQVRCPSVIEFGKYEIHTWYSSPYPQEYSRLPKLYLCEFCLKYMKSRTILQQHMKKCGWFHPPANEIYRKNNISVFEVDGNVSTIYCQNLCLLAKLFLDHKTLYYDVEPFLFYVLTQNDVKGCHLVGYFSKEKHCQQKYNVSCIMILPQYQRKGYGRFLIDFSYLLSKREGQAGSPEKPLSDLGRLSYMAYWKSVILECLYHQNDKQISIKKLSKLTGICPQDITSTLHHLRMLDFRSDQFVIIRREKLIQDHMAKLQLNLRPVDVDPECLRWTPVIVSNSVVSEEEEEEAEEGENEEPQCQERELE

Consider `Cc1cc(Cn2cccn2)cc(S(=O)(=O)NC(=O)c2cc3ccc(N(C)C)cc3o2)c1C` [Example 100], for which the values for the IC50 in experiment [1] and in experiment [2] were 177 nM and 974 nM, respectively. Further, the EC50 in experiment [3] is 1.12e-06 M; in experiment [4] it was greater than 20000 nM.

On to `CC(C)c1ccc(OCC(F)(F)F)c(S(=O)(=O)NC(=O)c2cc3ccc(N(C)C)cc3o2)c1` [Example 178, 6-(Dimethylamino)-N-[5-isopropyl-2-(2,2,2-trifluoroethoxy)phenyl]sulfonyl-benzofuran-2-carboxamide], for which the IC50 in experiment [1] was found to be 11 nM; in experiment [2] it was 69.6 nM. Further, the EC50 was 8.65e-08 M in experiment [3] and greater than 20000 nM in experiment [4].

`CCOc1ccccc1S(=O)(=O)NC(=O)c1cc2cc(C)c(N(C)C)cc2o1` [Example 200, 6-(Dimethylamino)-N-(2-ethoxybenzene-1-sulfonyl)-5-methyl-1-benzofuran-2-carboxamide]: the IC50 in experiment [1] is 6740 nM; in experiment [2], greater than 20000 nM. Also, the EC50 in experiment [3] was greater than 2e-05 M; in experiment [4], greater than 20000 nM.

For `CCc1ccccc1S(=O)(=O)NC(=O)c1cc2ccc(N(C)C)cc2o1` [Example 104, 6-(Dimethylamino)-N-(2-ethylbenzene-1-sulfonyl)-1-benzofuran-2-carboxamide], the IC50 was 1100 nM in experiment [1] and 3190 nM in experiment [2]. In addition, the EC50 was 3e-06 M in experiment [3] and greater than 20000 nM in experiment [4].

Regarding `CN(C)c1ccc2cc(C(=O)NS(=O)(=O)c3ccc(Cl)cc3Cl)oc2c1` [Example 27, N-(2,4-Dichlorobenzene-1-sulfonyl)-6-(dimethylamino)-1-benzofuran-2-carboxamide], the IC50 in experiment [1] stood at 134 nM; in experiment [2] it was 1750 nM. Also, the EC50 in experiment [3] was 1.73e-06 M; in experiment [4] it was greater than 20000 nM.

`CCOc1ccccc1S(=O)(=O)NC(=O)c1cc2ccc(N(C)CCOC)cc2o1` [Example 215, N-(2-Ethoxybenzene-1-sulfonyl)-6-[(2-methoxyethyl)(methyl)amino]-1-benzofuran-2-carboxamide]: the IC50 in experiment [1] amounted to 2660 nM; in experiment [2], 11800 nM. For the same compound, the EC50 in experiment [3] was 1.01e-05 M; in experiment [4], greater than 20000 nM.

With `Cc1ccc2cccc(S(=O)(=O)NC(=O)c3cc4ccc(N(C)C)c(F)c4o3)c2n1` [Example 190, 6-(Dimethylamino)-7-fluoro-N-((2-methylquinolin-8-yl)sulfonyl)benzofuran-2-carboxamide], the IC50 turned out to be 1400 nM in experiment [1] and 1930 nM in experiment [2]. For the same compound, the results for the EC50 in experiment [3] and in experiment [4] were 3.3e-06 M and 10400 nM, respectively.

Consider `CN(C)c1ccc2cc(C(=O)NS(=O)(=O)c3ccccc3)oc2c1` [Example 99, N-(benzenesulfonyl)-6-(dimethylamino)-1-benzofuran-2-carboxamide], for which the values for the IC50 in experiment [1] and in experiment [2] were 645 nM and 672 nM, respectively. For the same compound, the EC50 was 6.63e-07 M in experiment [3] and greater than 20000 nM in experiment [4].

On to `CN(C)c1cc2oc(C(=O)NS(=O)(=O)c3ccccc3-c3ccccc3)cc2cc1F` [Example 199, N-([1,1′-biphenyl]-2-ylsulfonyl)-6-(dimethylamino)-5-fluorobenzofuran-2-carboxamide], for which the IC50 in experiment [1] was found to be 2650 nM; in experiment [2], 9400 nM. The EC50 in experiment [3] is greater than 2e-05 M; in experiment [4] it was greater than 20000 nM.

For the compound `CN(C)c1cc(C(F)(F)F)c2cc(C(=O)NS(=O)(=O)c3ccccc3)oc2c1` [Example 194, 6-(Dimethylamino)-N-(phenylsulfonyl)-4-(trifluoromethyl)benzofuran-2-carboxamide], the IC50 is 44.9 nM in experiment [1] and 4090 nM in experiment [2]. For the same compound, the values for the EC50 in experiment [3] and in experiment [4] were 1.12e-06 M and greater than 20000 nM, respectively.

With `CC1CCCN1c1ccc2cc(C(=O)NS(=O)(=O)c3ccccc3-c3ccccc3)oc2c1` (racemic) [Example 44, N-([1,1′-Biphenyl]-2-sulfonyl)-6-[2-methylpyrrolidin-1-yl]-1-benzofuran-2-carboxamide (rac)], the IC50 was 3170 nM in experiment [1] and greater than 20000 nM in experiment [2]. The EC50 was greater than 2e-05 M in experiment [3] and greater than 20000 nM in experiment [4].

`CN(C)c1ccc2cc(C(=O)NS(=O)(=O)c3ccc(Br)cc3OC(F)(F)F)oc2c1` [Example 118, N-[4-Bromo-2-(trifluoromethoxy)benzene-1-sulfonyl]-6-(dimethylamino)-1-benzofuran-2-carboxamide]: the IC50 in experiment [1] was determined as 52.4 nM; in experiment [2], 555 nM. The EC50 is 9.57e-07 M in experiment [3] and greater than 20000 nM in experiment [4].

For the compound `COc1cc(S(=O)(=O)NC(=O)c2cc3ccc(N(C)C)cc3o2)cc(Cn2cccn2)c1OC` [Example 103, N-{3,4-Dimethoxy-5-[(1H-pyrazol-1-yl)methyl]benzene-1-sulfonyl}-6-(dimethylamino)-1-benzofuran-2-carboxamide], the IC50 is 1210 nM in experiment [1] and 2950 nM in experiment [2]. In addition, the EC50 in experiment [3] is 2.6e-06 M; in experiment [4] it was greater than 20000 nM.

For the compound `CN(C)c1ccc2cc(C(=O)NS(=O)(=O)c3cc(Br)cnc3NC3CC3)oc2c1` [Example 146, N-[5-Bromo-2-(cyclopropylamino)pyridine-3-sulfonyl]-6-(dimethylamino)-1-benzofuran-2-carboxamide], the IC50 in experiment [1] is 266 nM; in experiment [2] it was 5160 nM. Further, the EC50 is 3.73e-06 M in experiment [3] and greater than 20000 nM in experiment [4].

For the compound `CN(C)c1ccc2cc(C(=O)NS(=O)(=O)c3ccccc3-c3ccccc3)oc2c1Br` [Example 203, N-([1,1′-biphenyl]-2-sulfonyl)-7-bromo-6-(dimethylamino)-1-benzofuran-2-carboxamide], the IC50 was 8380 nM in experiment [1] and greater than 20000 nM in experiment [2]. The EC50 in experiment [3] was greater than 2e-05 M; in experiment [4] it was greater than 20000 nM.

For the compound `CCOc1ccc(C(C)CC)cc1S(=O)(=O)NC(=O)c1cc2ccc(N(C)C)cc2o1` (racemic) [Example 170, 6-(Dimethylamino)-N-(2-ethoxy-5-sec-butyl-phenyl)sulfonyl-benzofuran-2-carboxamide (rac)], the figures for the IC50 in experiment [1] and in experiment [2] were 4.4 nM and 22.1 nM, respectively. The EC50 in experiment [3] was 3.02e-08 M; in experiment [4], greater than 20000 nM.

As to `CCOc1ccccc1S(=O)(=O)NC(=O)c1cc2cc(Br)c(N(C)C)cc2o1` [Example 218, 5-Bromo-6-(dimethylamino)-N-(2-ethoxybenzene-1-sulfonyl)-1-benzofuran-2-carboxamide], the IC50 in experiment [1] worked out at 4730 nM; in experiment [2], 7900 nM. The EC50 is 8.31e-06 M in experiment [3] and greater than 20000 nM in experiment [4].

For `CCOc1ccc(NC(C)=O)cc1S(=O)(=O)NC(=O)c1cc2ccc(N(C)C)cc2o1` [Example 128, N-(5-Acetamido-2-ethoxybenzene-1-sulfonyl)-6-(dimethylamino)-1-benzofuran-2-carboxamide], the IC50 came to 351 nM in experiment [1] and 7800 nM in experiment [2]. Further, the EC50 in experiment [3] was 1.49e-06 M; in experiment [4], greater than 20000 nM.

`CCNc1ccc2cc(C(=O)NS(=O)(=O)c3cccc4ccc(C)nc34)oc2c1` [Example 220, 6-(Ethylamino)-N-(2-methylquinoline-8-sulfonyl)-1-benzofuran-2-carboxamide]: the IC50 in experiment [1] is 188 nM; in experiment [2], 716 nM. Besides, the EC50 is 8.91e-07 M in experiment [3] and greater than 20000 nM in experiment [4].

For `CC(Oc1ccccc1S(=O)(=O)NC(=O)c1cc2ccc(N(C)C)cc2o1)C(F)(F)F` (racemic) [Example 135, 6-(Dimethylamino)-N-(2-[-1,1,1-trifluoropropan-2-yl)oxy]benzene-1-sulfonyl)-1-benzofuran-2-carboxamide (rac)], the values for the IC50 in experiment [1] and in experiment [2] were 57.9 nM and 68.6 nM, respectively. For the same compound, the values for the EC50 in experiment [3] and in experiment [4] were 1.46e-07 M and greater than 20000 nM, respectively.

On to `CCOc1c(Cl)cccc1S(=O)(=O)NC(=O)c1cc2ccc(N(C)C)cc2o1` [Example 122, N-(3-Chloro-2-ethoxybenzene-1-sulfonyl)-6-(dimethylamino)-1-benzofuran-2-carboxamide], for which the IC50 amounted to 252 nM in experiment [1] and 453 nM in experiment [2]. The EC50 was 9.44e-07 M in experiment [3] and greater than 20000 nM in experiment [4].

In the case of `CN(C)c1ccc2cc(C(=O)NS(=O)(=O)c3ccc(N)c4cccnc34)oc2c1` [Example 166, N-(5-Aminoquinoline-8-sulfonyl)-6-(dimethylamino)-1-benzofuran-2-carboxamide], the results for the IC50 in experiment [1] and in experiment [2] were 56.4 nM and 150 nM, respectively. Also, the EC50 in experiment [3] stood at 1.5e-07 M; in experiment [4] it was 6310 nM.

Take `CCNc1ccc2cc(C(=O)NS(=O)(=O)c3ccccc3-c3ccccc3)oc2c1` [Example 211, N-([1,1′-biphenyl]-2-sulfonyl)-6-(ethylamino)-1-benzofuran-2-carboxamide]: the IC50 was 350 nM in experiment [1] and 4840 nM in experiment [2]. Also, the EC50 was 1.21e-06 M in experiment [3] and greater than 20000 nM in experiment [4].
